15 molecules from US8513250B2 (Laboratoire Biodim, priority 2007, dated 2013) can be followed below.

Structures are written as SMILES. Read-outs that look alike come from different tables or passages of the source.

For experiment [1], the target named is T1, DltA enzyme (Streptococcus agalactiae serotype III, UniProt Q8VM67).
T1 construct: His-tag (from pET100 vector) (N); made in house; host or cells: E. coli BL21 (DE3) Star
T1 sequence (Q8VM67 1-511): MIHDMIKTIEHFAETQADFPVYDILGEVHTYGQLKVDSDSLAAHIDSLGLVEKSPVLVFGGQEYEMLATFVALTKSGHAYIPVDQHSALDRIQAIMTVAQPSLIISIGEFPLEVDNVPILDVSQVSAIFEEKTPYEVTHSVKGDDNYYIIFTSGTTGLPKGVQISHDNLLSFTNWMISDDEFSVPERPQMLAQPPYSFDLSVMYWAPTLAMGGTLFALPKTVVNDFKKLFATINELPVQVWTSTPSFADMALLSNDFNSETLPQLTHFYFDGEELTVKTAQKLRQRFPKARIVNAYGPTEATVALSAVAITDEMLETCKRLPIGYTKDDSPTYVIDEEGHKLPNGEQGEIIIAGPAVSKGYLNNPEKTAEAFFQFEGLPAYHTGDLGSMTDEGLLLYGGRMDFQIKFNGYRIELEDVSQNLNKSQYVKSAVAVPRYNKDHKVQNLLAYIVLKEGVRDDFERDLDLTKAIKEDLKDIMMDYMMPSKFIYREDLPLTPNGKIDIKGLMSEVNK
The experiment is described as follows: DltA HTS assays (luminescent / fluorescent), inhibition of DltA enzymatic activity in vitro. The experiment is classed as biochemical, S. agalactiae. As to conditions: Table 1; DltA inhibition, HTS assays of method 1; read-out: IC50. The source says:
The compounds effect on DltA enzyme has been based on the measure of the inhibition of DltA activity in vitro.
To this end, a recombinant protein Dlta was expressed and purified after cloning of the gene of S. agalatiae as described below:
Methods 1: DltA HTS Assays
The assay described below makes use of dithiothreitol (DTT) instead of DltC as reactive thiol in the catalyzed reaction. In fact, the inventors have shown that DTT, but also Coenzyme A and N-Acetylcysteamine are all thiols able to replace efficiently DltC. In addition, contrary to the prior art, radioactivity is not used: all the assays are based either on luminescent ATP detection, or on fluorescent AMP detection. They are easily amenable to miniaturized formats and fast readouts as required by HTS.
The assay buffer “AB” contains 50 mM Hepes pH8.0, 10 mM MgCl2, 50 mM KCl, 0.012% Triton-X100. The following components are added in a white polystyrene Costar plate up to a final volume of 30 μL: 3 μL DMSO, or inhibitor dissolved in DMSO and 27 μL DltA enzyme and DTT in AB. After 30 min of pre-incubation at room temperature, 30 μL of Substrates mix in AB are added in each well to a final volume of 60 μL. This reaction mixture is then composed of 10 nM DltA (produced in house from S. agalactiae), 0.5 mM D-Alanine (Sigma), 0.5 μM ATP (Sigma) and 1 mM DTT (Biochemika) in assay buffer. After 90 min of incubation at room temperature, 30 μL of the revelation mix are added to a final volume of 90 μL, including the following constituents at the respective final concentrations: 2 nM luciferase (Sigma), 30 μM D-luciferin (Sigma), 100 μM N-acetylcysteamine (Aldrich). Luminescence intensity is immediately measured on an Analyst-HT (Molecular Devices) and converted into inhibition percentages. For IC50 (Inhibitory Concentration 50%) determinations, the inhibitor is added at 6 to 10 different concentrations, and the related inhibitions are fitted to a classical langmuir equilibrium model using XLFIT (IDBS).
The assay buffer “AB” contains 50 mM Hepes pH8.0, 10 mM MgCl2, 50 mM KCl, 0.012% Triton-X100. The following components are added in a black polystyrene Costar plate up to a final volume of 50 μL: 5 μL DMSO, or inhibitor dissolved in DMSO and 45 μL DltA enzyme and DTT in AB. After 30 min of pre-incubation at room temperature, 50 μL of Substrates-revelation mix in AB are added in each well to a final volume of 100 μL. This reaction mixture is then composed of 5 nM DltA (produced in house from S. agalactiae), 0.5 mM D-Alanine (Sigma), 10 μM ATP (Sigma), 1 mM DTT (Biochemika), 10 nM Adenylate kinase (produced in house), 5 u/mL Pyruvate Kinase (Sigma), 50 μM phosphoenolpyruvate (Sigma), 5 u/mL Lactate deshydrogenase (Sigma) and 3 μM NADH (Sigma) in assay buffer. Fluorescence intensity of NADH (λex=360 nm, λem=520 nm) is immediately measured kinetically by a Fluostar Optima (BMG). Inhibition percentages are derived from fitted initial velocities. For IC50 determinations, the inhibitor is added at 6 to 10 different concentrations, and the related inhibitions are fitted to a classical langmuir equilibrium model using XLFIT (IDBS). FIG. 2 represents the data obtained using this method.
The capacity of compounds to inhibit DltA enzymatic activity was assessed using the DltA HTS assays described in method 1.

Experiment [2] concerns S. agalactiae NEM316 WT. In words: Minimal Antivirulent Concentration (MAC) assay, sensitization of bacteria to colistin. It is filed as cell-based. The following applies: S. agalactiae wt strain, in presence of colistin 32 μg/ml, overnight, no visible growth. The source says: The readout of the assay is called Minimum antivirulent concentration (MAC) and represents the minimal dose of compound for which no visible bacterial growth is observed in the presence of colistin at a subinhibitory concentration. MAC assay is described in Method 3 hereinafter.
Method 3: Assay for Minimal Antivirulent Concentration (MAC) and Minimal Inhibitory Concentration (MIC): Determination of Compounds Activity for Sensitization of Bacteria to Cationic Peptide (Colistin)
The Gram positive bacteria S. agalactiae NEM316 WT are grown on tryptic soy agar (TSA) broth over-night at 37° C. with air enriched with 5% CO2. Ten to fifteen colonies isolated from over-night growth on agar are then added to 10 ml of TS media to produce a standard suspension of organisms. This pre-culture is incubated at 37° C. with constant shaking during two to three hours to reach the exponential phase. This suspension is diluted to obtain a final inoculum of 1E+04 CFU/ml. Viable counts are obtained by plating 10 to 1000-fold dilutions of the suspension on TSA.
According to our standardized conditions, the final volume in the well is 100 μl in a 96-well microplate. Compounds are tested in a range of 1 to 32 μg/mL. Each well contains 2 μl of compound diluted in 100% DMSO, 48 μl of TS (microplate without colistin) or 48 μl of colistin in TS (final concentration of colistin is 32 μg/ml for S. agalactiae), then […] (final inoculum of 1 E+04 CFU/ml). Final concentration of DMSO is 2%. Positive growth control wells for each organism are prepared with and without colistin and DMSO 2% final concentration. S. agalactiae NEM316 Δdlt is used in control wells to verify the effect of the colistin on a sensitive strain.
The microplates are then incubated overnight at 37° C. with 5% CO2. Visible bacterial growth is finally quantified by unaided eye.
The MAC of each compound is derived from the experiment in presence of colistin and is defined as the minimal concentration of compound for which no bacterial visible growth is observed.

Experiment [3] deals with S. agalactiae NEM316 WT. In words: Minimal Inhibitory Concentration (MIC) assay, absence of colistin. The experiment is classed as cell-based. As to conditions: Streptococcus agalactiae, NEM316WT.
Setting [4] is: S. agalactiae wt strain, absence of colistin, overnight, no visible growth, read-out: MIC SAG wt.

One may read the IC50 as the midpoint of a concentration-inhibition curve. For the molecule `CC(C)(C)c1cc(-c2cnc3c(NCCCO)nc4cc(C(F)(F)F)ccc4n23)[nH]n1` [Example 36, 3-({1-[3-tert-butyl-1H-pyrazol-5-yl]-7-(trifluoromethyl)imidazo[1,2-a]quinoxalin-4-yl}amino)propan-1-ol], the IC50 in experiment [1] is 49 nM. Also, in experiment [2], the “MAC” value amounted to 4 µg/mL. Also, the MIC in experiment [3] (setting [4]) was over 32 µg/mL.
Take `Cc1cc(-c2cnc3c(NCCCO)nc4cc(C(F)(F)F)ccc4n23)[nH]n1` [Example 39, 3-({1-[3-methyl-1H-pyrazol-5-yl]-7-(trifluoromethyl)imidazo[1,2-a]quinoxalin-4-yl}amino)propan-1-ol]: the IC50 in experiment [1] amounted to 13.5 nM. Besides, the “MAC” value in experiment [2] was determined as 8 µg/mL. In addition, the MIC in experiment [3] (setting [4]) was over 32 µg/mL.
`OCCCNc1nc2cc(C(F)(F)F)ccc2n2c(-c3cnn[nH]3)cnc12` [Example 35, 3-{[1-(1H-1,2,3-triazol-5-yl)-7-(trifluoromethyl)imidazo[1,2-a]quinoxalin-4-yl]amino}propan-1-ol]: in experiment [1], the IC50 turned out to be 270 nM. The “MAC” value in experiment [2] stood at 2 µg/mL. Besides, the MIC in experiment [3] (read-out: MIC SAG wt (μg/ml)) was over 32 µg/mL.
Consider `CNC(=O)c1cc(-c2cnc3c(NCCCO)nc4cc(C(F)(F)F)ccc4n23)[nH]n1` [Example 50, 5-{4-[(3-hydroxypropyl)amino]-7-(trifluoromethyl)imidazo[1,2-a]quinoxalin-1-yl}-N-methyl-1H-pyrazole-3-carboxamide], for which, in experiment [1], the IC50 worked out at 38 nM. Moreover, the “MAC” value in experiment [2] came to 8 µg/mL. In experiment [3] (setting [4]), the MIC was over 32 µg/mL.
For the molecule `OCCCNc1nc2cc(C(F)(F)F)ccc2n2c(-c3cccc(CO)c3)cnc12` [Example 16, 3-({1-[3-(hydroxymethyl)phenyl]-7-(trifluoromethyl)imidazo[1,2-a]quinoxalin-4-yl}amino)propan-1-ol], the IC50 in experiment [1] stood at 520 nM. Further, the “MAC” value in experiment [2] came to 8 µg/mL. In experiment [3] (setting [4]), the MIC was over 32 µg/mL.
Taken in the same sequence, the figures for `OCCCNc1nc2cc(OC(F)(F)F)ccc2n2c(-c3ccn[nH]3)cnc12` [Example 51, 3-{[1-(1H-pyrazol-5-yl)-7-(trifluoromethoxy)imidazo[1,2-a]quinoxalin-4-yl]amino}propan-1-ol] were 9 nM, 2 µg/mL and over 32 µg/mL.
On to `OCCCNc1nc2cc(C(F)(F)F)ccc2n2c(-c3ccc(N4CCOCC4)cc3)cnc12` [Example 14, 3-{[1-(4-N-morpholinophenyl)-7-(trifluoromethyl)imidazo[1,2-a]quinoxalin-4-yl]amino}propan-1-ol], for which the 50% inhibitory concentration (IC50) in experiment [1] was 460 nM.
Still for that read-out and setting: the figure for `OCCCNc1nc2cc(C(F)(F)F)ccc2n2c(CNCc3ccccc3)cnc12` [Example 44, 3-({1-[(benzylamino)methyl]-7-(trifluoromethyl)imidazo[1,2-a]quinoxalin-4-yl}amino)propan-1-ol] is 6100 nM.
On to `OCCCNc1nc2cc(F)c(F)cc2n2ccnc12` [Example 57, 3-[(7,8-difluoroimidazo[1,2-a]quinoxalin-4-yl)amino]propan-1-ol], for which the half-maximal inhibitory concentration (IC50) in experiment [1] is 57000 nM.
For the molecule `OCCCNc1nc2cc(C(F)(F)F)ccc2n2c(-c3[nH]ncc3Cl)cnc12` [Example 38, 3-({1-(4-chloro-1H-pyrazol-5-yl)-7-(trifluoromethyl)imidazo[1,2-a]quinoxalin-4-yl}amino)propan-1-ol], in experiment [1], the IC50 was 13.5 nM.
`OCCCNc1nc2cc(-c3ccccc3C(F)(F)F)ccc2n2ccnc12` [Example 5, 3-({7-[2-(trifluoromethyl)phenyl]imidazo[1,2-a]quinoxalin-4-yl}amino)propan-1-ol]: the IC50 in experiment [1] is 560 nM.
Turning to `Cn1cnc2c(NCCCO)nc3cc(C(F)(F)F)ccc3c21` [Example 25, 3-{[1-methyl-7-(trifluoromethyl)-1H-imidazo[4,5-c]quinolin-4-yl]amino}propan-1-ol], the IC50 in experiment [1] turned out to be 17000 nM.
Regarding `CCOC(=O)c1cc(-c2cnc3c(NCCCO)nc4cc(C(F)(F)F)ccc4n23)[nH]n1` [Example 47, 5-[4-(3-Hydroxy-propylamino)-7-trifluoromethyl-imidazo[1,2-a]quinoxalin-1-yl]-1H-pyrazole-3-carboxylic acid ethyl ester], in experiment [1], the concentration for half-maximal inhibition (IC50) was determined as 35 nM. Besides, in experiment [2], the “MAC” value came to 8 µg/mL. Further, in experiment [3] (setting [4]), the MIC is over 32 µg/mL.
As for `CC(=O)N1CC=C(c2cnc3c(NCCCO)nc4cc(C(F)(F)F)ccc4n23)CC1` [Example 28, 1-{4-[4-(3-hydroxy-propylamino)-7-trifluoromethyl-imidazo[1,2-a]quinoxalin-1-yl]-3,6-dihydro-2H-pyridin-1-yl}-ethanone], the IC50 in experiment [1] is 650 nM.
Turning to `OCCCNc1nc2cc(C(F)(F)F)ccc2c2c1ncn2[C@H]1CC[C@H](O)CC1` [Example 26, 4-[4-(3-hydroxy-propylamino)-7-trifluoromethyl-imidazo[4,5-c]quinolin-1-yl]-cyclohexanol], the IC50 in experiment [1] came out at 20000 nM.
